These are literature values, as cited in publication PMC7532674, “Synthesis and preliminary studies of ^11C-labeled tetrahydro-1,7-naphthyridine-2-carboxamides for PET imaging of metabotropic glutamate receptor 2” (Theranostics, 2020).

Data set [1] has as its system mGlu2. To be noted: cited from earlier work.
Details of data set [2]: method as in PMID 30611634. To be noted: cited from earlier work.
The conditions of data set [3]: animal PET; cited from earlier work.

In the case of `Cc1cc(COc2cnc(C(N)=O)cc2-c2ccc(O[11CH3])cc2F)ccn1` [[^11C]MMP, 4-(2-fluoro-4-[^11C]methoxyphenyl)-5-((2-methylpyridin-4-yl)methoxy)picolinamide], the half-maximal inhibitory concentration (IC50) (in general, the midpoint of a concentration-inhibition curve) in data set [1] is 0.026 µM. Further, the log distribution coefficient (LogD) (in general, lipophilicity at a set pH, counting ionised and neutral species) in data set [2] is recorded as 3.30. In data set [3], the “Brain uptake, peak value” was ~ 0.6.
